In patent US8895581B2, “1H-imidazo[4,5-c]quinolines” (Boehringer Ingelheim International GmbH, priority 2010, dated 2014):

Biological target: Recombinant human PDK1 enzyme (aa 52-556) (Homo sapiens (Human), UniProt O15530)
Test: PDK1 kinase assay
Format: biochemical
Conditions: 25 μM ATP solution with gamma-P33-ATP, PDKtide substrate, 90 min at RT
Description: The activity of the compounds according to the invention on the kinase PDK1 which inhibits the signal transduction pathway is determined in an in vitro kinase assay with recombinantly prepared protein:
Recombinant human PDK1 enzyme (aa 52-556) linked at its N-terminal end to His6 is isolated from baculovirus-infected insect cells. Purified enzyme may be obtained for example from the University of Dundee, Scotland. The following components are combined in a well of a 96-well round-based dish (Greiner bio-one, No. 650101): • 1. 15 μL of compound to be tested in varying concentrations (e.g. starting at 10 μM, and diluted in steps of 1:5) in APT buffer (50 mM Tris/Cl pH7.5; 0.05% β-mercaptoethanol; 10 mM Mg-acetate; 0.0166% Tween 20; 3.33% DMSO) • 2. 15 μL His6-PDK1 (aa 52-556) 3.33 ng/well) and PDKtide (KTFCGTPEYLAPEVRRE […]), synthesised by Pepceuticals Limited, Nottingham, United Kingdom; 25 μM final concentration); His6-PDK1 and PDKtide are together diluted accordingly in assay buffer (50 mM tris pH 7.5, 0.05% β-mercaptoethanol, 10 mM Mg-acetate); PDKtide is present in this mixture as an 83.3 μM solution. These 30 μl are routinely incubated for 30 min at RT. • 3. 20 μL ATP solution (25 μM ATP with 1.0 μCi/well gamma-P33-ATP). The final concentration of Tween 20 is 0.005%.
The reaction is started by adding the ATP solution and the mixture is incubated for 90 min at RT. At the start of the reaction the dishes are shaken gently. The reaction is stopped by the addition of 50 μL/well of 500 mM phosphoric acid (H3PO4) and incubated for about 20 min at RT. The precipitate is transferred by harvesting onto filter plates (96-well microtitre filter plate: UniFilter GF/C; Perkin Elmer; No. 6005174), then washed 6 times with 50 mM H3PO4 and dried at 60° C. Then the plate is stuck down with sealing tape, 25 μL/well of scintillation solution (Microscint 0; Perkin Elmer; No. 6013611) are added and the amount of P33 precipitated is measured using the Wallac Betacounter. The measured data are evaluated using Graphpad Prism software.

Recombinant human PDK1 enzyme (aa 52-556), sequence (O15530 52-556): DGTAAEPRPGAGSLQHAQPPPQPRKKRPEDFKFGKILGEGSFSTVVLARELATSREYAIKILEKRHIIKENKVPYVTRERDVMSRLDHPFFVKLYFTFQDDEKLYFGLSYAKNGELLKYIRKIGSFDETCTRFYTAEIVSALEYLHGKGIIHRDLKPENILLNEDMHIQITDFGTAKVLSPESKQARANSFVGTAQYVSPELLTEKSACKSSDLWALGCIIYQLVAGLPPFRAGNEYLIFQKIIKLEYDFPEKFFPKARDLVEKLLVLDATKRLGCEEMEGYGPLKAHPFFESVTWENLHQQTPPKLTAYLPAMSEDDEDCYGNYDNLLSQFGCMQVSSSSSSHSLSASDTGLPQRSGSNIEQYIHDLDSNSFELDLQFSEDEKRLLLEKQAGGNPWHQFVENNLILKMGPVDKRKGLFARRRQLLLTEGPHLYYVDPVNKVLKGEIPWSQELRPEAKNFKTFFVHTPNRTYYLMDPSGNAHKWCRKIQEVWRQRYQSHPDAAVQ

Going from `CN1CCC[C@@H](n2cnc3cnc4ccc(C#CCNC(=O)c5cc(Cl)nn(Cc6ccc(F)c(F)c6)c5=O)cc4c32)C1` [III-18] to `CN1CCC[C@@H](n2cnc3cnc4ccc(C#CCNC(=O)c5cncn(Cc6ccc(F)c(F)c6)c5=O)cc4c32)C1` [I-9], the IC50 falls from 787 nM to 10 nM (79-fold). The second is the more potent here.

Going from `Cc1nc2cnc3ccc(C#CCNC(=O)c4c(C)n(C)n(Cc5ccc(F)c(F)c5)c4=O)cc3c2n1C1CCOCC1` [III-21] to `Cc1nc2cnc3ccc(C#CCNC(=O)c4cccn([C@@H](C)c5ccc(F)c(F)c5)c4=O)cc3c2n1C1CCN(C)CC1` [III-6], the IC50 falls from 5 nM to 2 nM (2.5-fold). The second is the more potent here.

Compared with `O=C(NCC#Cc1ccc2ncc3ncn([C@@H]4CCNC4)c3c2c1)c1cncn(Cc2ccc(F)c(F)c2)c1=O` [I-13], `CN1CC[C@@H](n2cnc3cnc4ccc(C#CCNC(=O)c5cncn(Cc6ccc(F)c(F)c6)c5=O)cc4c32)C1` [I-6] is 1.6-fold higher in IC50: 16 nM for the first, 26 nM for the second. The first is the more potent here.

Compared with `Cc1nc2cnc3ccc(C#CCNC(=O)c4cccn(CC5CCOCC5)c4=O)cc3c2n1C(C)C` [II-24], `Cc1nc2cnc3ccc(C#CCNC(=O)c4cccn(CC5CCCC5)c4=O)cc3c2n1C(C)C` [II-26] is 22-fold lower in IC50: 590 nM for the first, 27 nM for the second. The second is the more potent here.

Compared with `Cc1nc2cnc3ccc(C#CCNC(=O)c4cccn([C@@H](CO)c5ccccc5)c4=O)cc3c2n1C(C)C` [II-21], `Cc1nc2cnc3ccc(C#CCNC(=O)c4cccn(Cc5ccccc5)c4=O)cc3c2n1C(C)C` [II-2] is 4-fold higher in IC50: 2 nM for the first, 8 nM for the second. The first is the more potent here.

Compared with `CC(C)n1cnc2cnc3ccc(C#CCNC(=O)c4cncn(Cc5ccc(F)c(F)c5)c4=O)cc3c21` [III-32], `CCn1cnc2cnc3ccc(C#CCNC(=O)c4cncn(Cc5ccc(F)c(F)c5)c4=O)cc3c21` [III-31] is 2-fold lower in IC50: 2 nM for the first, 1 nM for the second. The second is the more potent here.

Compared with `COCc1nc2cnc3ccc(C#CCNC(=O)c4cncn(Cc5ccc(F)c(F)c5)c4=O)cc3c2n1C` [V-7], `COCCc1nc2cnc3ccc(C#CCNC(=O)c4cncn(Cc5ccc(F)c(F)c5)c4=O)cc3c2n1C` [V-5, 1-(3,4-difluoro-benzyl)-6-oxo-1,6-dihydro-pyrimidine-5-carboxylic acid {3-[2-(2-methoxy-ethyl)-1-methyl-1H-imidazo[4,5-c]quinolin-8-yl]-prop-2-ynyl}-amide] is 1.7-fold lower in IC50: 41 nM for the first, 24 nM for the second.

First: Cc1nc2cnc3ccc(C#CCNC(=O)c4cccn([C@H](C)c5ccc(F)c(F)c5)c4=O)cc3c2n1C(C)C [II-7]
Second: Cc1nc2cnc3ccc(C#CCNC(=O)c4cccn([C@@H](C)c5ccc(F)c(F)c5)c4=O)cc3c2n1C(C)C [II-17]
The IC50 of the first is 55-fold higher: 55 nM for the first, 1 nM for the second. The second is the more potent here.

First: Cc1nc2cnc3ccc(C#CCNC(=O)c4cccn(C[C@H]5CCCC[C@H]5O)c4=O)cc3c2n1C(C)C [II-28]
Second: Cc1nc2cnc3ccc(C#CCNC(=O)c4cccn(CC5CCCCC5)c4=O)cc3c2n1C(C)C [II-18]
The IC50 of the first is 16-fold higher: 221 nM for the first, 14 nM for the second.

First: Cc1nc2cnc3ccc(C#CCNC(=O)c4cncn(Cc5ccc(F)c(F)c5)c4=O)cc3c2n1C [III-34]
Second: Cn1c(CF)nc2cnc3ccc(C#CCNC(=O)c4cncn(Cc5ccc(F)c(F)c5)c4=O)cc3c21 [V-6, 1-(3,4-difluoro-benzyl)-6-oxo-1,6-dihydro-pyrimidine-5-carboxylic acid [3-(2-fluoromethyl-1-methyl-1H-imidazo[4,5-c]quinolin-8-yl)-prop-2-ynyl]-amide]
The IC50 of the first is 2.4-fold lower: 8 nM for the first, 19 nM for the second. The first is the more potent here.

First: Cc1cc(C(=O)NCC#Cc2ccc3ncc4nc(C)n(C(C)C)c4c3c2)c(=O)n([C@@H](C)c2ccc(F)c(F)c2)n1 [II-11]
Second: Cc1nc2cnc3ccc(C#CCNC(=O)c4c(C)n(C)n(C(C)c5ccc(F)c(F)c5)c4=O)cc3c2n1C(C)C (stereo not drawn) [II-15]
The IC50 of the first is 14-fold higher: 70 nM for the first, 5 nM for the second.

Compared with `CN1CCC(n2cnc3cnc4ccc(C#CCNC(=O)c5cncn(Cc6ccc(F)c(F)c6)c5=O)cc4c32)CC1` [I-10], `CN1CC[C@H](n2cnc3cnc4ccc(C#CCNC(=O)c5cncn(Cc6ccc(F)c(F)c6)c5=O)cc4c32)C1` [I-7] is 9-fold higher in IC50: 2 nM for the first, 18 nM for the second. The first is the more potent here.

First: CN(C)CCn1cnc2cnc3ccc(C#CCNC(=O)c4cccn(Cc5ccccc5)c4=O)cc3c21 [III-10]
Second: CN(C)CCCn1cnc2cnc3ccc(C#CCNC(=O)c4cncn(Cc5ccc(F)c(F)c5)c4=O)cc3c21 [I-8]
The IC50 of the first is 17-fold higher: 277 nM for the first, 16 nM for the second.

Compared with `CN(C)CCCc1nc2cnc3ccc(C#CCNC(=O)c4cncn(Cc5ccc(F)c(F)c5)c4=O)cc3c2n1C` [V-9], `CN(C)CCc1nc2cnc3ccc(C#CCNC(=O)c4cncn(Cc5ccc(F)c(F)c5)c4=O)cc3c2n1C` [V-10] is 3.7-fold higher in IC50: 6 nM for the first, 22 nM for the second. The first is the more potent here.

First: Cc1nc2cnc3ccc(C#CCNC(=O)c4cccn([C@@H](C)C5CCCCC5)c4=O)cc3c2n1C(C)C [II-14]
Second: Cc1nc2cnc3ccc(C#CCNC(=O)c4cccn(CC5CCCOC5)c4=O)cc3c2n1C(C)C (stereo not drawn) [II-29]
The IC50 of the first is 5.9-fold lower: 34 nM for the first, 202 nM for the second. The first is the more potent here.

First: CN1CC[C@@H](n2cnc3cnc4ccc(C#CCNC(=O)c5cccn(Cc6ccc(F)c(F)c6)c5=O)cc4c32)C1 [III-15]
Second: O=C(NCC#Cc1ccc2ncc3ncn(CCO)c3c2c1)c1cncn(Cc2ccc(F)c(F)c2)c1=O [I-2]
The IC50 of the first is 5-fold higher: 20 nM for the first, 4 nM for the second.

Going from `Cc1cc(C(=O)NCC#Cc2ccc3ncc4ncn([C@H]5CC[C@@H](N(C)C)CC5)c4c3c2)c(=O)n(Cc2ccc(F)c(F)c2)n1` [III-3] to `CCOc1cc(C(=O)NCC#Cc2ccc3ncc4nc(C)n(C(C)C)c4c3c2)c(=O)n(Cc2ccc(F)c(F)c2)n1` [II-5], the IC50 falls from 15 nM to 4 nM (3.8-fold).

Compared with `Cc1nc2cnc3ccc(C#CCNC(=O)c4cc(Cl)nn(Cc5ccc(F)c(F)c5)c4=O)cc3c2n1CCc1ccccc1` [III-7], `Cc1nc2cnc3ccc(C#CCNC(=O)c4cccn([C@@H](C)c5ccc(F)c(F)c5)c4=O)cc3c2n1C1CCN(C(C)C)CC1` [II-32] is 2.3-fold lower in IC50: 7 nM for the first, 3 nM for the second.
